Results published in PubChem BioAssay AID720547 (The Scripps Research Institute Molecular Screening Center, 2013).
Where “and” joins values, the source holds several entries; their conditions need not be identical. Equal entries are not always repeated. Calls of active or inactive are those of the source.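 Rule for the calls: active = compound flagged as a likely artifact in this counterscreen, with IC50 of 10 µM or lower; inactive = IC50 above 10 µM.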

Tested on: HEK293 Gal4-VP16 luciferase reporter counterscreen, luminescence
Assay: Gal4-VP16 luciferase reporter inhibitors, dose response, counter-screen for COUP-TFII inhibitor project, cell-based, luminescence, HEK293 (AID 720547);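 note: potency for lowering the luciferase signal driven by Gal4-VP16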

Row | Structure (SMILES) | IC50
1 | N#CCSc1nnc(-c2sc3ccccc3c2Cl)o1 | 85.9 µM (inactive)
2 | Cc1cccc(Nc2nc(-c3c(C)nc4ccccn34)cs2)c1 | 66.3 µM (inactive)
3 | Cc1ccccc1Cn1c(C)nc2ccccc21 | > 85.4 µM (inactive)
4 | S=C(NCCc1ccccc1)Nc1cccc2cnccc12 | > 85.4 µM (inactive)
5 | Cn1nccc1C(=O)NC1CCCc2c1cnn2-c1ccc(C(C)(C)C)cc1 (centres undefined) | > 85.4 µM (inactive)
6 | Cc1ccc(-c2cn(-c3ccccc3)c3[n+]2CCCS3)cc1 | > 85.4 µM (inactive)
7 | COc1ccc(Cl)cc1Nc1nc(-c2sc(NC(=O)C(C)(C)C)nc2C)cs1 | > 85.4 µM (inactive)
8 | Cc1cc(N2CCN(c3nc4ccccc4s3)CC2)n2ncnc2n1 | > 85.4 µM (inactive)
9 | CN(C)c1cc[n+](CC(=O)c2ccc(-c3ccccc3)cc2)cc1 | > 85.4 µM (inactive)
10 | CC(C)c1ccc(CN2CCN(C(=O)CSc3nnnn3C3CC3)CC2)cc1 | > 85.4 µM (inactive)
11 | Cc1ccc(S(=O)(=O)NCc2ccncc2)c(C)c1C | > 85.5 µM (inactive)
12 | O=C(c1cccs1)C1CCN(c2ncnc3sccc23)CC1 | > 85.4 µM (inactive)
13 | Cc1oc(-c2ccc(Cl)cc2)nc1CS(=O)CC(=O)NCCCN1CCN(Cc2ccccc2)CC1 (centres undefined) | > 28.5 µM (inactive)
14 | CC(C)OCCCNc1ncnc2c1[nH]c1ccc(F)cc12 | > 85.4 µM (inactive)
15 | COc1ccc(CN(C)c2ccc(S(=O)(=O)N3CCN(C)CC3)cc2[N+](=O)[O-])cc1OC | > 85.4 µM (inactive)
16 | CC(=O)Nc1ccc(SCC(=O)c2cc(C)n(Cc3cccs3)c2C)cc1 | > 85.4 µM (inactive)
17 | Cc1c(C(=O)NCc2ccc(C(C)C)cc2)sc(=O)n1Cc1ccc(S(=O)(=O)N(C)C)cc1 | > 85.4 µM (inactive)
18 | COc1ccc(-n2nnnc2C(c2cc3ccccc3o2)N2CCC(n3c(=O)[nH]c4ccccc43)CC2)cc1 (centres undefined) | 12.7 µM (inactive)
19 | COc1ccc(-n2cc(-c3ccc(C)cc3)[n+]3c2SCC3)cc1 | > 85.4 µM (inactive)
20 | Cc1ccc(F)cc1NC(=O)Cc1nn(C)c(=O)c2ccccc12 | > 85.4 µM (inactive)
21 | CC(C)(C)c1ccc(-c2nnc3sc(-c4ccccn4)nn23)cc1 | > 85.4 µM (inactive)
22 | COc1ccc(NS(=O)(=O)c2ccc(-c3coc(C)n3)cc2)cc1OC | > 85.4 µM (inactive)
23 | COC(=O)c1ccc2nc(Nc3nc4ccc(F)cc4s3)sc2c1 | > 85.4 µM (inactive)
24 | CCCCCCn1c2c(c(=N)c3c1CCC3)CCC2 | > 85.4 µM (inactive)

Row | Structure (SMILES) | IC50
25 | c1ccc2cc3[nH]c(CNc4nc(N5CCOCC5)nc5c4ncn5-c4ccsc4)nc3cc2c1 | > 85.3 µM (inactive)
26 | Cn1nc(CC(=O)Nc2ccc3c(c2)OCCO3)c2ccccc2c1=O | > 85.4 µM (inactive)
27 | CCOc1ccc(-n2c(-c3ccccc3)c[n+]3c2CCCCC3)cc1 | > 85.4 µM (inactive)
28 | CCOC(=O)c1cnc(-n2nc(C)cc2C)nc1NC1CCCC1 | 50.3 µM (inactive)
29 | Cc1cc(S(=O)(=O)NCc2ccncc2)c(C)cc1Br | > 85.4 µM (inactive)
30 | Cc1cc(C)c(S(=O)(=O)NCc2ccncc2)c(C)c1 | > 85.4 µM (inactive)
31 | N=c1ccn(CC(=O)c2ccc(-c3ccccc3)cc2)cc1 | > 85.4 µM (inactive)
32 | Cc1[nH]nc(C(F)(F)F)c1N=NN1CCOCC1 | 51.6 µM (inactive)
33 | COc1ccc(CCNc2ncnc3sccc23)cc1OC | > 85.4 µM (inactive)
34 | C/C(=N\NC(N)=S)C1C2C3CC4C5CC(C42)C1C53 (centres undefined) | > 85.4 µM (inactive)
35 | CCOC(=O)c1cnc(-n2nc(C)cc2C)nc1NC1CCCCC1 | 45.4 µM (inactive)
36 | CCN(CC)C(=O)c1oc2ccc(S(=O)(=O)N3CC(C)CC(C)C3)cc2c1C (centres undefined) | 72.3 µM (inactive)
37 | CC(=O)c1c(C)[nH]c(C(=O)COc2cc(C)ccc2C(C)C)c1C | > 85.4 µM (inactive)
38 | O=C(Nc1ccc(Oc2ccccc2)cc1)c1csc([C@H]2C[C@H](O)[C@@H](CO)O2)n1 | > 85.4 µM (inactive)
39 | O=C(Cc1ccc(Cl)cc1Cl)Nc1ccncc1Cl | > 85.4 µM (inactive)
40 | COc1ccc(/C=N/OCC(=O)NC(c2ccccc2)c2ccccc2)cc1OC | > 85.4 µM (inactive)
41 | CCOCCCNC(=S)N1CCN(c2nc(-c3ccc(F)cc3)cs2)CC1 | 45.1 µM (inactive)
42 | Fc1ccc2[nH]c3c(N4CCc5ccccc5C4)ncnc3c2c1 | 77.5 µM (inactive)
43 | CCOC(=O)c1c(C)[nH]c(C(=O)OCC(=O)Nc2sccc2C(N)=O)c1C | 29.8 µM (inactive)
44 | Cn1c(=O)c2[nH]c(CCCCCCCCc3nc4ccccc4[nH]3)nc2n(C)c1=O | > 28.5 µM (inactive)
45 | CC(C)CC(NC(=O)CCCNC(=O)CCC(=O)OC1O[C@H]2OC3(C)CC[C@H]4[C@H](C)CCC(C1C)C24OO3)C(=O)O (some centres undefined) | > 85.4 µM (inactive)
46 | CC(=O)N[C@@H](C)c1nc2ccccc2n1CCCN1CCN(c2nc(-c3ccc(C)cc3)cs2)CC1 | 57 µM (inactive)
47 | COc1cc2c(cc1OC)C1C(=O)c3ccc4c(c3OC1CO2)CC(C(C)C)O4 (centres undefined) | > 28.5 µM (inactive)
48 | Cc1c(Cl)cccc1NC(=O)N1CCCN(c2nc(-c3ccccc3)ns2)CC1 | > 85.4 µM (inactive)

Row | Structure (SMILES) | IC50
49 | Cc1nc2ccccc2n1Cc1ccc(Br)cc1 | > 85.3 µM (inactive)
50 | Cc1cc(C(=O)NC2CCCc3c2cnn3-c2cccc(C)c2C)n(C)n1 (centres undefined) | > 85.4 µM (inactive)
51 | O=C(Nc1ccncc1)c1ccc(Cl)c(S(=O)(=O)N2CCc3ccccc32)c1 | 60.6 µM (inactive)
52 | OC[C@@H]1CN(Cc2ccc(-c3ccccc3)cc2)C[C@H](n2cnc3c(NC4CCCC4)ncnc32)O1 | 53.4 µM (inactive)
53 | O=C(NCCc1cn2ccccc2n1)c1cc(COc2ccc3ncccc3c2)on1 | 31.1 µM (inactive)
54 | c1ccc(CNc2ncnc3ccccc23)cc1 | > 85.4 µM (inactive) and > 85.3 µM (inactive)
55 | COc1cccc(CN(C)C(=O)c2ccc(OCC(=O)Nc3cccc(C(F)(F)F)c3)c(OC)c2)c1 | > 28.5 µM (inactive)
56 | NC(=O)c1ccsc1NC(=O)COC(=O)Cc1cccc2ccccc12 | > 85.4 µM (inactive)
57 | Cc1nc2c(-c3ccc(Cl)cc3)cnn2c(N)c1-c1ccc(F)cc1 | > 85.4 µM (inactive)
58 | CCN1/C(=C/c2ccc3cc(C)ccc3[n+]2CC)Sc2ccccc21 | 22 µM (inactive)
59 | CC(C)CNc1ncnc2c1ncn2[C@H]1CN(Cc2ccc(-c3ccccc3)cc2)C[C@@H](CO)O1 | 61.9 µM (inactive)
60 | OC[C@@H]1CN(Cc2ccc(-c3ccccc3)cc2)C[C@H](n2cnc3c(NCc4ccncc4)ncnc32)O1 | 59.3 µM (inactive)
61 | COc1ccc(C(=O)C2CCN(c3ncnc4sccc34)CC2)cc1 | > 28.4 µM (inactive)
62 | CC1Cc2cc(-c3csc(NC(=O)Cc4ccccc4)n3)ccc2N1S(C)(=O)=O (centres undefined) | > 85.4 µM (inactive)
63 | Cc1cc(C(=O)NC2CCCc3c2cnn3-c2ccc(C(C)(C)C)cc2)nn1C (centres undefined) | > 85.4 µM (inactive)
64 | Cn1nccc1C(=O)NC1CCCc2c1cnn2-c1ccccc1F (centres undefined) | > 85.4 µM (inactive)
65 | Cc1c(C(=O)N2CCN(Cc3ccc4c(c3)OCO4)CC2)sc2ncnc(N3CCN(c4ccccc4F)CC3)c12 | 62.7 µM (inactive)
66 | Cc1ccc(-n2nc3c(=O)n(C(C)C(=O)NCc4ccccc4Cl)nc(C)c3c2C)cc1 (centres undefined) | 81.8 µM (inactive)
67 | COC(=O)C1CCCCN1C(=O)c1cc(COc2cccc3cnccc23)on1 (centres undefined) | > 85.4 µM (inactive)
68 | CCOC(=O)N1CCC(Nc2ncnc3c2cnn3-c2ccc(C)cc2C)CC1 | > 85.4 µM (inactive)
69 | Cc1ccc(OCCN2CCN(c3ncnc4sc(C)c(C)c34)CC2)cc1 | > 85.4 µM (inactive)
70 | CC(=O)c1cn(CCOc2ccccc2C)c2ccccc12 | > 85.4 µM (inactive)
71 | Cc1cc(C)c(CN2CCN(C(=O)Cn3cnc4c(OCc5ccccc5)ncnc43)CC2)c(C)c1 | > 85.3 µM (inactive)
72 | O=C(c1ccccc1)C1CCN(c2ncnc3sccc23)CC1 | > 85.5 µM (inactive)

Row | Structure (SMILES) | IC50
73 | COc1ccc(NC(=O)COc2ccc(N(C)S(=O)(=O)c3ccc(Cl)cc3)cc2)cc1OC | > 85.4 µM (inactive)
74 | COc1ccc(CCNc2ncnc3sc(C)cc23)cc1OC | > 28.5 µM (inactive)
75 | Cc1cc2c(=Cc3ccc(N(C)C)cc3)c3ccccc3n2[n+]1C | 36.5 µM (inactive)
76 | CC(=O)Nc1ccccc1OCC(=O)c1cc(C)n(Cc2cccs2)c1C | > 85.5 µM (inactive)
77 | CC1CC(C)(O)CC(C(O)CC2CC(=O)NC(=O)C2)C1=O (centres undefined) | > 85.3 µM (inactive)
78 | Cc1ccc(-n2nc3c(=O)n(C(C)C(=O)NCCC4=CCCCC4)nc(C)c3c2C)cc1 (centres undefined) | > 28.5 µM (inactive)
79 | Cc1cccc(Cl)c1NC(=O)N1CCCN(c2nc3ccc(Cl)cc3s2)CC1 | > 85.4 µM (inactive)
80 | O=C(CSc1nnc(-c2cccnc2)s1)Nc1ccnc2ccccc12 | > 85.4 µM (inactive)
81 | Cn1nc(CC(=O)Nc2ccc(N3CCN(C(=O)OC(C)(C)C)CC3)cc2)c2ccccc2c1=O | 81.2 µM (inactive)
82 | Cc1cc(/C=C2/SC(=S)N(c3cccc(Cl)c3)C2=O)c(C)n1-c1cccnc1 | > 85.4 µM (inactive)
83 | COc1ccccc1-n1c(-c2ccccc2)c[n+]2c1CCc1ccccc1-2 | > 85.4 µM (inactive)
84 | CCN=c1scc(-c2ccc3c(c2)NC(=O)CO3)n1N=C1CCCC1 | > 85.4 µM (inactive)
85 | Fc1ccc(CN2CCN(c3ncc(Cc4ccccc4)cn3)CC2)c(Cl)c1 | > 85.3 µM (inactive)
86 | C[C@H]1C[C@@H](C)C(=O)[C@@H]([C@H](O)CC2CC(=O)NC(=O)C2)C1 | > 85.4 µM (inactive)
87 | CCC(C)C(NC(=O)CCCNC(=O)CCC(=O)OC1O[C@H]2OC3(C)CC[C@H]4[C@H](C)CCC(C1C)C24OO3)C(=O)O (some centres undefined) | > 85.4 µM (inactive)
88 | CCC1CCCCN1C(=O)c1cc(COc2ccc3ncccc3c2)on1 (centres undefined) | > 85.4 µM (inactive)
89 | Cc1nn(C)c(C)c1NC(=O)COc1ccc(Cl)cc1Br | > 85.4 µM (inactive)
90 | Cc1nn(C)c(C(=O)NCc2ccc(Cl)cc2)c1Cl | > 85.4 µM (inactive)
91 | Cc1ccc(C(=O)NC2CCCc3c2cnn3-c2ccc(F)cc2F)cn1 (centres undefined) | > 85.4 µM (inactive)
92 | O=S(=O)(NCC1CCCO1)c1ccc(-c2ccc(S(=O)(=O)NCC3CCCO3)cc2)cc1 (centres undefined) | > 85.4 µM (inactive)
93 | CCOC(=O)N1CCC(NC(=O)C2CCCN(Cc3nc(-c4ccc(CC)cc4)oc3C)C2)CC1 (centres undefined) | 80.1 µM (inactive)
94 | CCCCCCn1c(NCC)nc2c1c(=O)n(C)c(=O)n2C | > 85.4 µM (inactive)
